From PMC7022718, “Composition and Insecticidal Activity of Essential Oil of Bacopa caroliniana and Interactive Effects of Individual Compounds on the Activity” (Insects, 2019)

Test system: T1, acetylcholine esterase (AChE), crude, from rice weevil
T1 construct: gene ace1; native, unpurified; supernatant of whole adult homogenate in phosphate buffer pH 7.4 (8775 g, 20 min)
Experiment: Ellman colorimetric assay, […] nm
Type: biochemical, Sitophilus oryzae
Conditions: crude enzyme; acetylthiocholine iodide 2.5 mM, pH 7.4, 35 °C, 15 min preincubation, compound in ethanol

| SMILES | AChE-IC50 (μL mL^-1) |
| --- | --- |
| CC12CCC(CC1)C(C)(C)O2 [1,8-Cineole] | 31.13 ± 2.20 µL mL^−1 |
| C=CC(O)CCCCC (stereo not drawn) [1-Octen-3-ol] | 14.82 ± 0.12 µL mL^−1 |
| CC1=CCC(O)(C(C)C)CC1 (stereo not drawn) [4-Terpineol] | 11.29 ± 0.02 µL mL^−1 |
| C=C1CC[C@H]2O[C@]2(C)CC[C@@H]2[C@@H]1CC2(C)C [Caryophyllene oxide] | > 500 µL mL^−1 |
| CC(C)=CCCC(C)CCO (stereo not drawn) [Citronellol] | 86.08 ± 1.09 µL mL^−1 |
| C=C(C)C1CC=C(C)CC1 (stereo not drawn) [Limonene] | 9.57 ± 1.37 µL mL^−1 |
| C=CC(C)(O)CCC=C(C)C (stereo not drawn) [Linalool] | 44.33 ± 1.31 µL mL^−1 |
| C=CC(C)(O)CCC=C(C)CCC=C(C)C (stereo not drawn) [Nerolidol] | 331.24±21.55 µL mL^−1 |
| C=C1CCC2(C(C)C)CC12 (stereo not drawn) [Sabinene] | 85.03 ± 0.20 µL mL^−1 |
| Cc1ccc(C(C)C)cc1 [p-Cymene] | > 500 µL mL^−1 |
| CC1=CCC2CC1C2(C)C (stereo not drawn) [α-Pinene] | 1.81 ± 0.20 µL mL^−1 |
| CC1=CC=C(C(C)C)CC1 [α-Terpinene] | > 500 µL mL^−1 |
| CC1=CCC(C(C)(C)O)CC1 (stereo not drawn) [α-Terpineol] | 18.39 ± 1.52 µL mL^−1 |
| CC1=CCC(=C(C)C)CC1 [α-Terpinolene] | 1.10 ± 0.17 µL mL^−1 |
| C=C1CC/C=C(\C)CC[C@@H]2[C@@H]1CC2(C)C [β-Caryophyllene] | > 500 µL mL^−1 |
| C=CC(=C)CCC=C(C)C [β-Myrcene] | > 500 µL mL^−1 |
| C=C1CCC2CC1C2(C)C (stereo not drawn) [β-Pinene] | > 500 µL mL^−1 |
| CC1=CCC(C(C)C)=CC1 [γ-Terpinene] | > 500 µL mL^−1 |
